Tested on: FLAP (5-lipoxygenase activating protein)
Experiment: In vitro binding test: displacement of [3H]-7-chloro-3-(5-((3-fluoropyridin-2-yl)methoxy)-2-methylphenyl)-3,4-dihydroquinazolin-2(1H)-one from Sf9 microsome fractions
Parameters: species or system human and mouse
Details: Sf9 microsome fractions expressing FLAP; 100% = radioligand binding with 10 μM sodium 3-(3-(tert-butylsulfanyl)-1-(4-chlorobenzyl)-5-isopropyl-1H-indol-2-yl)-2,2-dimethylpropanoate, 0% = DMSO; test compound concentration not given
Procedure: As an assay buffer, 100 mM Tris-HCl, pH 7.5, 140 mM NaCl, 2 mM EDTA, 0.5 mM dithiothreitol, 5% glycerol, 0.05% Tween20 was used. Sf9 microsome fractions expressing human and mouse FLAPs were dispensed by 50 μL to a 96-well plate at 2 μg/mL. Furthermore, a test compound (25 μL) diluted 4-fold of the final concentration with the assay buffer was added and mixed therewith, and the mixture was incubated at room temperature for 10 min. Furthermore, 120 nM [^3H]-7-chloro-3-(5-((3-fluoropyridin-2-yl)methoxy)-2-methylphenyl)-3,4-dihydroquinazolin-2(1H)-one was added by 25 μL, and mixed therewith, and the mixture was incubated at room temperature for 60 min. Thereafter, the cells were transferred to a 96-well GF/B Unifilter plate with a FilterMate cell harvester, and washed 3 times with a wash buffer (100 mM Tris-HCl pH 7.5, 0.05% Tween20, 200 μL) cooled to 4° C. The GF/B Unifilter plate was dried at 37° C., Microscint 0 was added and measured by TopCount NXT (PerkinElmer). As for the inhibitory activity, the inhibitory rate was calculated wherein the [^3H]-7-chloro-3-(5-((3-fluoropyridin-2-yl)methoxy)-2-methylphenyl)-3,4-dihydroquinazolin-2(1H)-one binding amount in the presence of 10 μM sodium 3-(3-(tert-butylsulfanyl)-1-(4-chlorobenzyl)-5-isopropyl-1H-indol-2-yl)-2,2-dimethylpropanoate was 100%, and the [^3H]-7-chloro-3-(5-((3-fluoropyridin-2-yl)methoxy)-2-methylphenyl)-3,4-dihydroquinazolin-2(1H)-one binding amount in the presence of DMSO was 0%.

Row | inhibitory rate (%) | Structure (SMILES)
1 | 94 | O=C1Nc2ccnc(Cl)c2CN1c1cc2c(cc1Cl)CCC(c1ncccc1F)O2 (racemic) [Example 1, 5-chloro-3-(6-chloro-2-(3-fluoropyridin-2-yl)-3,4-dihydro-2H-chromen-7-yl)-3,4-dihydropyrido[4,3-d]pyrimidin-2(1H)-one]
2 | 102 | O=C1Nc2ccnc(Cl)c2CN1c1cc2c(cc1Cl)CC[C@@H](c1ncccc1F)O2 [Example 2, 5-chloro-3-((2S)-6-chloro-2-(3-fluoropyridin-2-yl)-3,4-dihydro-2H-chromen-7-yl)-3,4-dihydropyrido[4,3-d]pyrimidin-2(1H)-one]
3 | 97 | O=C1Nc2ccnc(Cl)c2CN1c1cc2c(cc1Cl)CC[C@H](c1ncccc1F)O2 [Example 3, 5-chloro-3-((2R)-6-chloro-2-(3-fluoropyridin-2-yl)-3,4-dihydro-2H-chromen-7-yl)-3,4-dihydropyrido[4,3-d]pyrimidin-2(1H)-one]
4 | 103 | Cc1cc2c(cc1N1Cc3c(ccnc3C(F)(F)F)NC1=O)OC(c1ncccc1F)CC2 (stereo not shown) [Example 4, 3-(2-(3-fluoropyridin-2-yl)-6-methyl-3,4-dihydro-2H-chromen-7-yl)-5-(trifluoromethyl)-3,4-dihydropyrido[4,3-d]pyrimidin-2(1H)-one]
5 | 100 | Cc1cc2c(cc1N1Cc3c(ccnc3C(F)(F)F)NC1=O)O[C@@H](c1ncccc1F)CC2 [Example 5, 3-((2R)-2-(3-fluoropyridin-2-yl)-6-methyl-3,4-dihydro-2H-chromen-7-yl)-5-(trifluoromethyl)-3,4-dihydropyrido[4,3-d]pyrimidin-2(1H)-one]
6 | 98 | Cc1cc2c(cc1N1Cc3c(ccnc3C(F)(F)F)NC1=O)O[C@H](c1ncccc1F)CC2 [Example 6, 3-((2S)-2-(3-fluoropyridin-2-yl)-6-methyl-3,4-dihydro-2H-chromen-7-yl)-5-(trifluoromethyl)-3,4-dihydropyrido[4,3-d]pyrimidin-2(1H)-one]
7 | 98 | Cc1ncc(Cl)c2c1NC(=O)N(c1cc3c(cc1Cl)CCC(c1ncccc1F)O3)C2 (stereo not shown) [Example 7, 5-chloro-3-(6-chloro-2-(3-fluoropyridin-2-yl)-3,4-dihydro-2H-chromen-7-yl)-8-methyl-3,4-dihydropyrido[3,4-d]pyrimidin-2(1H)-one]
8 | 103 | Cc1ncc(Cl)c2c1NC(=O)N(c1cc3c(cc1Cl)CC[C@H](c1ncccc1F)O3)C2 [Example 8, 5-chloro-3-((2R)-6-chloro-2-(3-fluoropyridin-2-yl)-3,4-dihydro-2H-chromen-7-yl)-8-methyl-3,4-dihydropyrido[3,4-d]pyrimidin-2(1H)-one]
9 | 104 | Cc1ncc(Cl)c2c1NC(=O)N(c1cc3c(cc1Cl)CC[C@@H](c1ncccc1F)O3)C2 [Example 9, 5-chloro-3-((2S)-6-chloro-2-(3-fluoropyridin-2-yl)-3,4-dihydro-2H-chromen-7-yl)-8-methyl-3,4-dihydropyrido[3,4-d]pyrimidin-2(1H)-one]
10 | 102 | COc1cc2c(c(C3CC3)n1)CN(c1cc3c(cc1Cl)CCC(c1ncccc1F)O3)C(=O)N2 (stereo not shown) [Example 16, 3-(6-chloro-2-(3-fluoropyridin-2-yl)-3,4-dihydro-2H-chromen-7-yl)-5-cyclopropyl-7-methoxy-3,4-dihydropyrido[4,3-d]pyrimidin-2(1H)-one]
11 | 103 | COc1nccc2c1CN(c1cc3c(cc1C)CCC(c1ncccc1F)O3)C(=O)N2 (stereo not shown) [Example 21, 3-(2-(3-fluoropyridin-2-yl)-6-methyl-3,4-dihydro-2H-chromen-7-yl)-5-methoxy-3,4-dihydropyrido[4,3-d]pyrimidin-2 (1H)-one]
12 | 109 | Cc1cc2c(cc1N1Cc3c(Cl)cncc3NC1=O)OC(c1ncccc1F)CC2 (stereo not shown) [Example 22, 5-chloro-3-(2-(3-fluoropyridin-2-yl)-6-methyl-3,4-dihydro-2H-chromen-7-yl)-3,4-dihydropyrido[3,4-d]pyrimidin-2(1H)-one]
13 | 92 | COc1cncc2c1CN(c1cc3c(cc1C)CCC(c1ncccc1F)O3)C(=O)N2 (stereo not shown) [Example 23, 3-(2-(3-fluoropyridin-2-yl)-6-methyl-3,4-dihydro-2H-chromen-7-yl)-5-methoxy-3,4-dihydropyrido[3,4-d]pyrimidin-2(1H)-one]
14 | 96 | Cc1cc2c(cc1N1Cc3c(ccnc3C(F)F)NC1=O)OC(c1ncccc1F)CC2 (stereo not shown) [Example 24, 5-(difluoromethyl)-3-(2-(3-fluoropyridin-2-yl)-6-methyl-3,4-dihydro-2H-chromen-7-yl)-3,4-dihydropyrido[4,3-d]pyrimidin-2 (1H)-one]
15 | 99 | Cc1cc2c(cc1N1Cc3c(ccnc3C3CC3)NC1=O)OC(c1ncccc1F)CC2 (stereo not shown) [Example 25, 5-cyclopropyl-3-(2-(3-fluoropyridin-2-yl)-6-methyl-3,4-dihydro-2H-chromen-7-yl)-3,4-dihydropyrido[4,3-d]pyrimidin-2(1H)-one]

Further lines, the compound ahead of its results:

Row | Structure (SMILES) | inhibitory rate (%)
16 | Cc1cc2c(cc1N1Cc3c(Cl)cnc(-c4c(C)noc4C)c3NC1=O)OC(c1ncccc1F)CC2 (single isomer, unassigned; (+)) [Example 12, (+)-5-chloro-8-(3,5-dimethyl-1,2-oxazol-4-yl)-3-(2-(3-fluoropyridin-2-yl)-6-methyl-3,4-dihydro-2H-chromen-7-yl)-3,4-dihydropyrido[3,4-d]pyrimidin-2(1H)-one] | 99
17 | Cc1cc2c(cc1N1Cc3c(Cl)cnc(-c4c(C)nn(C)c4C)c3NC1=O)OC(c1ncccc1F)CC2 (single isomer, unassigned; (+)) [Example 14, (+)-5-chloro-3-(2-(3-fluoropyridin-2-yl)-6-methyl-3,4-dihydro-2H-chromen-7-yl)-8-(1,3,5-trimethyl-1H-pyrazol-4-yl)-3,4-dihydropyrido[3,4-d]pyrimidin-2(1H)-one] | 105
18 | Cc1cc2c(cc1N1Cc3c(Cl)cnc(-c4c(C)noc4C)c3NC1=O)OC(c1ncccc1F)CC2 (single isomer, unassigned; (-)) [Example 11, (−)-5-chloro-8-(3,5-dimethyl-1,2-oxazol-4-yl)-3-(2-(3-fluoropyridin-2-yl)-6-methyl-3,4-dihydro-2H-chromen-7-yl)-3,4-dihydropyrido[3,4-d]pyrimidin-2(1H)-one] | 109
19 | Cc1cc2c(cc1N1Cc3c(Cl)cnc(-c4c(C)nn(C)c4C)c3NC1=O)OC(c1ncccc1F)CC2 (single isomer, unassigned; (-)) [Example 15, (−)-5-chloro-3-(2-(3-fluoropyridin-2-yl)-6-methyl-3,4-dihydro-2H-chromen-7-yl)-8-(1,3,5-trimethyl-1H-pyrazol-4-yl)-3,4-dihydropyrido[3,4-d]pyrimidin-2(1H)-one] | 102
20 | Cc1cc2c(cc1N1Cc3c(Cl)cnc(-c4c(C)noc4C)c3NC1=O)OC(c1ncccc1F)CC2 (stereo not shown) [Example 10, 5-chloro-8-(3,5-dimethyl-1,2-oxazol-4-yl)-3-(2-(3-fluoropyridin-2-yl)-6-methyl-3,4-dihydro-2H-chromen-7-yl)-3,4-dihydropyrido[3,4-d]pyrimidin-2(1H)-one] | 94
21 | Cc1cc2c(cc1N1Cc3c(Cl)cnc(-c4c(C)nn(C)c4C)c3NC1=O)OC(c1ncccc1F)CC2 (stereo not shown) [Example 13, 5-chloro-3-(2-(3-fluoropyridin-2-yl)-6-methyl-3,4-dihydro-2H-chromen-7-yl)-8-(1,3,5-trimethyl-1H-pyrazol-4-yl)-3,4-dihydropyrido[3,4-d]pyrimidin-2(1H)-one] | 101
22 | O=C1Nc2cc(=O)[nH]c(C3CC3)c2CN1c1cc2c(cc1Cl)CCC(c1ncccc1F)O2 (stereo not shown) [Example 17, 3-(6-chloro-2-(3-fluoropyridin-2-yl)-3,4-dihydro-2H-chromen-7-yl)-5-cyclopropyl-4,6-dihydropyrido[4,3-d]pyrimidine-2,7(1H,3H)-dione] | 110
23 | O=C1Nc2cc(OC(F)F)nc(C3CC3)c2CN1c1cc2c(cc1Cl)CCC(c1ncccc1F)O2 (stereo not shown) [Example 18, 3-(6-chloro-2-(3-fluoropyridin-2-yl)-3,4-dihydro-2H-chromen-7-yl)-5-cyclopropyl-7-(difluoromethoxy)-3,4-dihydropyrido[4,3-d]pyrimidin-2(1H)-one] | 88
24 | O=C1Nc2cc(OC(F)F)nc(C3CC3)c2CN1c1cc2c(cc1Cl)CC[C@H](c1ncccc1F)O2 [Example 19, 3-((2R)-6-chloro-2-(3-fluoropyridin-2-yl)-3,4-dihydro-2H-chromen-7-yl)-5-cyclopropyl-7-(difluoromethoxy)-3,4-dihydropyrido[4,3-d]pyrimidin-2(1H)-one] | 102
25 | O=C1Nc2cc(OC(F)F)nc(C3CC3)c2CN1c1cc2c(cc1Cl)CC[C@@H](c1ncccc1F)O2 [Example 20, 3-((2S)-6-chloro-2-(3-fluoropyridin-2-yl)-3,4-dihydro-2H-chromen-7-yl)-5-cyclopropyl-7-(difluoromethoxy)-3,4-dihydropyrido[4,3-d]pyrimidin-2(1H)-one] | 96

Reference: patent US20150299188A1, “HETEROCYCLIC COMPOUND” (priority 2012, published 2015)
